Where “and” joins values, the source holds several entries; their conditions need not be identical. Equal values may be shown once.
Test system: placental gene expression
Assay: Placental gene expression (Affymetrix Rat Genome Chip 230.2) after SSRI (fluoxetine) exposure throughout gestation
Assay type: in vivo
Experimental: Gene expression data from pregnant rats under different forms of dietary restriction was gathered. […] (N=8) • Group 2 (CR50): Rats Given 50% of their Normal Daily Intake of Food. (N=5) • Group 3 (CR70): Rats Given 70% of their Normal Daily Intake of Food. […] (N=6) Placentas from the rats of each Group were harvested on Day 21 of gestation. RNA was extracted and gene expression was measured based on hybridization of RNA to Affymetrix Rat Genome Chips™ (230.2) (Affymetrix, Santa Clara, Calif.).
In order to determine whether placental gene expression profiling can be used to identify other prenatal exposures such as toxicants and drugs, a group of rats with drug exposure was monitored as described above. […] As with control, CR50, CR70, and HF groups, placentas from the mothers were sampled after 21 days of gestation and gene expression monitored utilizing an Affymetrix Rat Genome Chip.

[1] = rat placenta, day 21 of gestation, individual animals of SSRI group

CNCCC(Oc1ccc(C(F)(F)F)cc1)c1ccccc1 (stereo not shown) [fluoxetine, Fluoxetine]
expression, probeset 1391042_at (placenta, SSRI-exposed samples): 7.197 and 7.167 and 6.844 and 6.389 and 6.757 and 6.835 | expression, probeset 1391078_at (placenta, SSRI-exposed samples): 9.617 and 9.614 and 9.751 and 9.434 and 10.05 and 9.264 | expression, probeset 1391376_at (placenta, SSRI-exposed samples): 7.297 and 7.473 and 6.881 and 6.738 and 6.838 and 6.654 | expression, probeset 1391555_at (placenta, SSRI-exposed samples): 7.012 and 7.728 and 6.644 and 6.541 and 6.178 and 6.968 | expression, probeset 1391709_at (placenta, SSRI-exposed samples): 4.661 and 4.684 and 4.722 and 4.806 and 4.713 and 4.47 | expression, probeset 1392028_at (placenta, SSRI-exposed samples): 6.162 and 6.747 and 6.346 and 6.242 and 6.323 and 6.159 | expression, probeset 1392231_at (placenta, SSRI-exposed samples): 6.879 and 7.148 and 7.615 and 7.767 and 7.913 and 7.35 | expression, probeset 1392936_at (placenta, SSRI-exposed samples): 8.882 and 8.406 and 9.262 and 8.975 and 9.393 and 8.807 | expression, probeset 1392950_at (placenta, SSRI-exposed samples): 3.949 and 4.094 and 3.999 and 4.085 and 4.164 and 3.919 | expression, probeset 1393104_at (placenta, SSRI-exposed samples): 5.321 and 5.704 and 5.504 and 5.333 and 5.921 and 5.58 | expression, probeset 1393266_at (placenta, SSRI-exposed samples): 4.99 and 5.174 and 4.982 and 4.609 and 4.824 and 4.636 | expression, probeset 1393517_at (placenta, SSRI-exposed samples): 6.631 and 6.746 and 6.287 and 6.483 and 6.515 and 6.633 | expression, probeset 1393539_at (placenta, SSRI-exposed samples): 6.157 and 5.169 and 4.952 and 5.172 and 5.083 and 5.053 | expression, probeset 1393580_at (placenta, SSRI-exposed samples): 5.687 and 6.03 and 5.819 and 5.753 and 6.108 and 5.967 | expression, probeset 1393752_at (placenta, SSRI-exposed samples): 6.208 and 6.548 and 6.148 and 6.455 and 6.651 and 6.417 | expression, probeset 1393798_at (placenta, SSRI-exposed samples): 3.547 and 3.62 and 3.802 and 3.629 and 3.836 and 3.782 | expression, probeset 1393853_at (placenta, SSRI-exposed samples): 5.346 and 5.933 and 5.865 and 5.835 and 5.821 and 5.912 | expression, probeset 1393939_at (placenta, SSRI-exposed samples): 4.71 and 4.865 and 4.742 and 4.586 and 4.592 and 4.507 | expression, probeset 1393989_at (placenta, SSRI-exposed samples): 5.99 and 6.475 and 6.07 and 6.001 and 6.425 and 6.268 | expression, probeset 1394361_a_at (placenta, SSRI-exposed samples): 4.204 and 4.507 and 4.247 and 4.097 and 4.402 and 4.275 | expression, probeset 1394414_at (placenta, SSRI-exposed samples): 9.565 and 9.667 and 9.428 and 9.394 and 9.769 and 9.655 | expression, probeset 1394498_at (placenta, SSRI-exposed samples): 5.626 and 5.476 and 5.778 and 5.78 and 5.589 and 5.688 | expression, probeset 1394762_at (placenta, SSRI-exposed samples): 3.748 and 3.837 and 3.727 and 3.741 and 3.941 and 3.853 | expression, probeset 1394790_at (placenta, SSRI-exposed samples): 6.185 and 6.363 and 6.208 and 6.069 and 6.016 and 6.008 | expression, probeset 1395303_at (placenta, SSRI-exposed samples): 3.284 and 3.242 and 3.289 and 3.3 and 3.261 and 3.274 | expression, probeset 1395316_at (placenta, SSRI-exposed samples): 6.786 and 6.744 and 6.399 and 5.525 and 5.977 and 6.48 | expression, probeset 1395875_at (placenta, SSRI-exposed samples): 7.411 and 7.212 and 7.607 and 7.667 and 7.918 and 7.66 | expression, probeset 1395951_at (placenta, SSRI-exposed samples): 4.46 and 4.582 and 4.341 and 4.395 and 4.516 and 4.568 | expression, probeset 1395970_at (placenta, SSRI-exposed samples): 4.781 and 4.846 and 4.597 and 4.342 and 4.707 and 4.733 | expression, probeset 1396104_at (placenta, SSRI-exposed samples): 5.464 and 5.416 and 5.468 and 5.564 and 5.567 and 5.601 | expression, probeset 1396326_at (placenta, SSRI-exposed samples): 5.928 and 5.926 (2×) and 5.857 and 6.008 and 5.802 | expression, probeset 1397116_at (placenta, SSRI-exposed samples): 3.723 and 3.556 and 3.711 and 3.773 and 3.705 and 3.589 | expression, probeset 1397187_at (placenta, SSRI-exposed samples): 5.847 and 6.088 and 6.024 and 5.915 and 5.91 and 5.886 | expression, probeset 1397500_x_at (placenta, SSRI-exposed samples): 6.721 and 7.079 and 6.818 and 6.587 and 6.983 and 6.477 | expression, probeset 1397676_at (placenta, SSRI-exposed samples): 6.024 and 6.128 and 5.935 and 6.174 and 6.311 and 5.898 | expression, probeset 1397738_at (placenta, SSRI-exposed samples): 4.159 and 4.154 and 4.198 and 4.197 and 4.131 and 4.271 | expression, probeset 1397834_at (placenta, SSRI-exposed samples): 6.223 and 6.44 and 5.752 and 5.565 and 5.81 and 5.978 | expression, probeset 1397911_at (placenta, SSRI-exposed samples): 5.777 and 6.103 and 5.669 and 5.522 and 5.664 and 5.597 | expression, probeset 1397956_at (placenta, SSRI-exposed samples): 5.497 and 5.765 and 4.575 and 4.745 and 5.255 and 5.147 | expression, probeset 1398025_at (placenta, SSRI-exposed samples): 6.981 and 7.045 and 6.561 and 6.889 and 6.773 and 6.868 | expression, probeset 1398196_at (placenta, SSRI-exposed samples): 5.275 and 5.259 and 5.614 and 5.101 and 5.599 and 5.566 | expression, probeset 1398208_s_at (placenta, SSRI-exposed samples): 6.67 and 6.822 and 6.248 and 6.32 and 5.983 and 6.359 | expression, probeset 1398571_x_at (placenta, SSRI-exposed samples): 5.476 and 5.783 and 5.339 and 5.581 and 5.638 and 5.597 | number of probe sets whose expression was altered by exposure (rat placenta, day 21 of gestation, approximately 10 mg/kg/day in drinking water throughout pregnancy, vs control): 281 probe sets | Log base 2 expression for G6 (probe set 1369132, solute carrier 18, member 2) [1]: 8.97 log base 2 and 9.76 log base 2 and 8.56 log base 2 and 8.71 log base 2 and 8.41 log base 2 and 9.1 log base 2 | Log base 2 expression for G7 (probe set 1368474, vascular adhesion molecule 1) [1]: 5.83 log base 2 and 6.83 log base 2 and 5.81 log base 2 and 5.78 log base 2 and 6.05 log base 2 | Log base 2 expression for G8 (probe set 1388116, collagen type 1 alpha) [1]: 8.34 log base 2 and 8.25 log base 2 and 7.56 log base 2 and 7.7 log base 2 and 7.57 log base 2 and 7.69 log base 2 | Log base 2 expression for G9 (probe set 1368558, allograft inflammatory factor 1) [1]: 5.07 log base 2 and 5.61 log base 2 and 6.11 log base 2 and 5.3 log base 2 and 5.39 log base 2 | Log base 2 expression for G10 (probe set 1387796, arachidonate 12 lipoxygenase) [1]: 7.19 log base 2 and 8.37 log base 2 and 8.23 log base 2 and 6.76 log base 2 and 8.03 log base 2
